Measurements taken from patent publication US5202243A, “Method of hydroxylating 3-[2-(benzoxazol-2-yl)ethyl]-5-ethyl-6-methyl-2-(1H)-pyridinone by incubation with liver slices” (Merck & Co., Inc., priority 1992, dated 1993).
pIC50: −log10 of the molar value.

Key:
[1] = target: T1, recombinant HIV reverse transcriptase (HIV RTR) (Human immunodeficiency virus type 1 group M subtype B, UniProt P04585); assay: Reverse transcriptase assay (incorporation of tritiated dGMP into acid-precipitable cDNA); assay type: biochemical; settings: [dGTP] and poly r(C).oligo d(G)12-18 at approx. Km; 37° C., 45 minutes; read-out: calculated IC50
T1 construct: recombinant HIV reverse transcriptase (HIV RTR)
Procedure: The assay measures the incorporation of tritiated deoxyguanosine monophosphate by recombinant HIV reverse transcriptase (HIV RTR) (or other RT) into acid-precipitable cDNA at the Km values of dGTP and poly r(C).oligo d(G)12-18.
Thirty uL of a reaction mixture containing equal volumes of: 500 mM Tris.HCl (pH 8.2), 300 mM MgCl2, 1200 mM KCl, 10 mM DTT, 400 μg/mL poly r(c).oligo d(G) [prepared by dissolving 1.5 mg (25 U) poly r(C).oligo d(G) in 1.5 ml sterile distilled H2 O and diluting to 400 μg/ml], 0.1 μCi/μl [^3 H] dGTP, 160 μM dGTP, were added to 10 μl sterile distilled H2 O, and 2.5 μl of potential inhibitor. An aliquot of 10 μL of 5 nM purified HIV RTR was added to initiate the reaction. The mixture was incubated at 37° C. for 45 minutes.
After incubation is complete, the tubes were cooled in ice for 5 minutes. Ice-cold 13% TCA containing 10 mM NaPPi (200 μl) are added and the mixture incubated on ice for 30 minutes. The precipitated cDNA is removed by filtration using presoaked glass filters [TCA, NaPPi ]. The precipitate is then washed with 1N HCl, 10 mM NaPPi.
The filter discs are then counted in a scintillation counter.
Under these conditions [dGTP] and poly r(C).oligo d(G)12-18 each are approximately equal to the appropriate Km value. Approximately 5-6,000 cpm of [^3 H] GMP are incorporated into acid-precipitable material. The RT reaction is concentration- and time-dependent.

[2] = Incubation with rat liver slices (metabolism); assay type: in vitro ADME; settings: four hours
Text: Ethyl acetate extraction gave a recovery of ~70% of the tritiated material, while ~25% (~9 HPLC peaks) remained in the aqueous residue.

metabolised at 4 h ([2]; tritiated compound 14.18 μmol, rat liver slices 6.1 g, Williams Medium E, pH 7.4, 37° C.) [%] | Compound | pIC50 [1] | radioactive HPLC peak, % of the total metabolites ([2]; ethyl acetate extract of the rat liver slice incubation of the parent compound) [%]
 | CCc1cc(CCc2nc3ccccc3o2)c(=O)[nH]c1CO [compound (I), 3-[2-(benzoxazol-2-yl)ethyl]-5-ethyl-6-hydroxymethyl-2 (1H)-pyridinone] | ~7.36 | 6
~32 | CCc1cc(CCc2nc3ccccc3o2)c(O)nc1C [compound (II), 3-[2-(Benzoxazol-2-yl)ethyl]-5-ethyl-6-methyl-2-(1H)-pyridinone] |  | 
